Assay results published in patent publication US20050256178A1, “Novel nutraceutical compositions comprising boitin” (priority 2002, published 2005).

Key:
C57BLKS/J db/db mice = assay: Glucose removal after oral glucose load (OGTT) in db/db mice, 5-week study; format: in vivo; conditions: for Glucose removal rate (% glucose decrease of control) 90 min / Glucose removal rate (% glucose decrease of control) 120 min / Glucose removal rate (% glucose decrease of control) 150 min / Glucose removal rate (% glucose decrease of control) 180 min: OGTT (1 g glucose/kg) in db/db mice after 4 weeks feed-ad-mix, biotin 8 mg/kg BW/day, phytanic acid 300 mg/kg BW/day; for Blood glucose levels during the glucose load compared to the control group: db/db mice, glucose load 1 g/kg, 90-180 min, biotin 8, phytanic acid 300 mg/kg BW/day
Description: The efficacy of the combination of biotin and phytanic acid as well as of both compounds alone on glucose removal was tested in a 5-week study in C57BLKS/J db/db mice (n=7−8/group). This model of late type 2 diabetes with severe hyperglycemia is widely used to determine the efficacy of anti-diabetic compounds.
Male db/db mice were obtained from Jackson Laboratory (Bar Harbor, Me., USA). Adult mice aged 8 weeks were used in the experiment. Mice were housed individually in plastic cages with bedding and allowed free access to standard rodent food and tap water. The animal rooms were controlled for temperature (24° C.), humidity (55%), and light (12-h light-dark cycle). The animals were randomized into four groups. Biotin and phytanic acid were administered as feed-ad-mix. Corn oil (1% of diet) served as a carrier substance for biotin and phytanic acid as well as a placebo when used alone. Group 1 received placebo, group 2 received biotin at a dose of 8 mg/kg body weight (BW)/day, group 3 received phytanic acid at a dose of 300 mg/kg BW/day, and group 4 received the combination of biotin and phytanic acid at a doses of 8 and 300 mg/kg BW/day, respectively. After 4 weeks of treatment glucose removal was assessed 90, 120, 150 and 180 minutes after an oral glucose load (1 g/kg body weight). Blood samples were obtained 90, 120, 150, 180 minutes from the tail vein for determination of blood glucose levels. Blood glucose was measured by a glucose analyzer (Glucotrend Premium, Roche Diagnostics, Rotkreuz, Switzerland). All data are expressed as means for animals in each diet group. Statistical significance of the mean differences between dietary groups was tested by one-way analysis of variance (ANOVA). If significant differences were found, the Dunnett's test for multiple comparison was used to compare each group to the control group. P values less than 0.05 were considered significant. All analyses were performed with Statistica (ver. 5.5A, StatSoft, Inc).
GRR is defined as the speed at which glucose is removed from blood and directed to the peripheral tissues. At 90, 120, 150 and 180 minutes after application of the glucose load blood glucose levels in animals treated with the combination of biotin and phytanic acid decreased to a greater extent than excepted by the decrease due to monotherapy with biotin or phytanic acid. […] To evaluate the GRR the glucose levels were expressed as the percent change of glucose levels for each group compared to the control group. The expected GRR is defined as the sum of the GRR exerted by biotin and by phytanic acid when used as a monotherapy.

[1] = tested on: catalytic subunit of glucose-6-phosphatase; assay: Affymetrix GeneChip expression of glucose-6-phosphatase catalytic subunit in H-4-II-E rat liver cells; format: cell-based; conditions: H-4-II-E cells, 24 h; 50 μM EGCG, 1 μM biotin, 50 μM cysteamin; Affymetrix Id 1370725_a_at; triplicate
Description: The Affymetrix GeneChip® high-density oligonucleotide microarray approach was chosen to determine the global gene expression in H-4-II-E rat liver cells.
H-4-II-E rat liver cells were obtained from the American Type Culture Collection (ATCC) and cultured in Medium 199 (Invitrogen) Basel, Switzerland) supplemented with 10% fetal calf serum in a humidified 5% CO2 atmosphere at 37° C. Cells were regularly passaged at subconfluence and used at low passage numbers. For the final assays, cells were trypsinized, seeded at a density of 1×10^6 cells/well in 6-well cell culture plates and maintained in Medium 199 & 0.1% BSA (Invitrogen) for another 6 h before compounds were applied. EGCG was applied in DMSO; cysteamin was first solved in 1M HCl and then applied to the stimulation medium, biotin was directly dissolved into the medium. After 24 h treatment, total RNA was harvested.
A total number of 24 samples were prepared following the Affymetrix GeneChip® array protocol (Affymetrix, Santa Clara, Calif., USA). Briefly, total cellular RNA was extracted by using Qiagen RNeasy Mini Kit with an on-column RNase-free DNase I digest (Qiagen, Basel, Switzerland). A T7-(T)24 primer (5′-[sequence] [sequence]-(dT)24-3′) was annealed to 10 kg of total RNA and Superscript II reverse transcriptase (400 U) was utilized to synthesize first-strand cDNA in the presence of DTT, dNTPs and 1× reaction buffer. Second strand synthesis was performed by adding E. coli DNA polymerase I (40 U), E. coli ligase (10 U) and RNase H (2 U) in a final reaction containing 1× second strand buffer in the presence of dNTPs. Finally strands were blunted using T4 DNA polymerase (10 U) (Superscript™ Microarray Customized Kit, Invitrogen, Basel, CH). cDNA was purified by phenol/chloroform extraction and subsequently in vitro transcription was carried out for 3 h using T7 RNA polymerase (Megascript™ T7 Kit, Ambion, Tex., USA), incorporating bio-16-UTPs and bio-11-CTPs (Roche Molecular Biochemicals, Penzberg, Germany). […]

[2] = tested on: diabetic KK mice (NIDDM model); assay: Oral glucose tolerance in diabetic KK mice; format: in vivo; conditions: biotin orally (2-16 mg/day) or parentally (0.1 mg/day)
Source text: (§1) Biotin: Biotin supplementation enhances hepatic glucose clearance which results in a decrease of circulating glucose concentration and induces decrease in the hepatic PEPCK activity. PEPCK is a rate-limiting cytosolic enzyme that catalyses the first committed step of hepatic gluconeogenesis. Decrease of hepatic PEPCK activity results in a decrease in liver glucose output.

[3] = tested on: streptozotocin-diabetic rats (IDDM); assay: Oral glucose tolerance in streptozotocin-diabetic rats; format: in vivo; conditions: biotin orally (2-16 mg/day) or parentally (0.1 mg/day)
Source text: as §1

[4] = tested on: pre-diabetic Otsuka Long-Evans Tokushima fatty (OLETF) rats (NIDDM); assay: Oral glucose tolerance in pre-diabetic OLETF rats; format: in vivo; conditions: biotin orally (2-16 mg/day) or parentally (0.1 mg/day)
Source text: as §1

[5] = tested on: type 1 and type 2 diabetic patients; assay: Preliminary human studies, fasting blood glucose after biotin supplementation; format: in vivo
Source text: as §1

rat primary hepatocytes = assay: Glucose uptake in rat primary hepatocytes; format: cell-based; conditions: about 10 to about 100 μM
Source text: (§2) Therefore, intake of phytanic acid helps to improve insulin sensitivity and may act as a preventative measure against type 2 diabetes and Syndrome X through activation of PPARs and RXR.

pre-adipocyte cells = assay: Differentiation of pre-adipocyte cells into mature adipocytes; format: cell-based; conditions: compared to the specific PPAR-γ agonist ciglitazone
Source text: as §2

Row | Compound | Glucose removal rate (% glucose decrease of control) 90 min (C57BLKS/J db/db mice) [%] | Glucose removal rate (% glucose decrease of control) 120 min (C57BLKS/J db/db mice) [%] | Glucose removal rate (% glucose decrease of control) 150 min (C57BLKS/J db/db mice) [%] | Glucose removal rate (% glucose decrease of control) 180 min (C57BLKS/J db/db mice) [%] | Blood glucose levels during the glucose load compared to the control group (C57BLKS/J db/db mice) | MeanAvgDiff (Mean Relative Expression) of glucose-6-phosphatase catalytic subunit [1] | Oral glucose tolerance [2] | Oral glucose tolerance [3] | Oral glucose tolerance [4] | Fasting blood glucose levels [5] | Uptake of glucose (rat primary hepatocytes) | Effects on differentiation of pre-adipocyte cells into mature adipocytes (pre-adipocyte cells)
1 | O=C(O)CCCC[C@@H]1SC[C@@H]2NC(=O)N[C@@H]21 [Biotin] | 11.6 | 10.2 | 15.3 | 15.0 | Neither biotin nor phytanic acid caused a significant decrease | 516.66 | improved oral glucose tolerance | improved oral glucose tolerance | improved oral glucose tolerance | decreased | – | –
2 | NCCS [Cysteamin, cysteamine] | – | – | – | – | – | 447.42 | – | – | – | – | – | –
3 | O=C(O[C@@H]1Cc2c(O)cc(O)cc2O[C@@H]1c1cc(O)c(O)c(O)c1)c1cc(O)c(O)c(O)c1 [EGCG, Epigallocatechin gallate] | – | – | – | – | – | 484.8 | – | – | – | – | – | –
4 | CC(C)CCCC(C)CCCC(C)CCCC(C)CC(=O)O (stereo not shown) [Phytanic acid, 3,7,11,15-tetramethylhexadecanoic acid] | 9.7 | 12.5 | 14.6 | 15.2 | Neither biotin nor phytanic acid caused a significant decrease | – | – | – | – | – | enhances uptake of glucose | only minor effects
